The values that follow come from ChEMBL document CHEMBL3046600, “1-Phenoxyalkyl-4-[(N,N-disubstitutedamino)alkyl]piperazine derivatives as non-imidazole histamine H3-antagonists” (Med Chem Res, 2013).

Conditions in all cases: read-out: pA2 (converted)
The target of assay [1] is T1, Histamine H3 receptor (Cavia porcellus, UniProt Q9JI35). The assay is described as follows: Antagonist activity at histamine H3 receptor in Cavia porcellus (guinea pig) ileum assessed as inhibition of electrically-induced contraction. Format: tissue-based.
Assay [2] has as its target T1, Histamine H3 receptor. The experiment in a line: Antagonist activity at histamine H3 receptor in Cavia porcellus (guinea pig) jejunum assessed as inhibition of electrically-induced contraction.
The target in assay [3] is Histamine H1 receptor (Cavia porcellus, UniProt P31389). The assay is described as follows: Antagonist activity at histamine H1 receptor in Cavia porcellus (guinea pig) ileum assessed as inhibition of histamine-induced contraction.
Chain of Histamine H1 receptor (P31389 whole entry): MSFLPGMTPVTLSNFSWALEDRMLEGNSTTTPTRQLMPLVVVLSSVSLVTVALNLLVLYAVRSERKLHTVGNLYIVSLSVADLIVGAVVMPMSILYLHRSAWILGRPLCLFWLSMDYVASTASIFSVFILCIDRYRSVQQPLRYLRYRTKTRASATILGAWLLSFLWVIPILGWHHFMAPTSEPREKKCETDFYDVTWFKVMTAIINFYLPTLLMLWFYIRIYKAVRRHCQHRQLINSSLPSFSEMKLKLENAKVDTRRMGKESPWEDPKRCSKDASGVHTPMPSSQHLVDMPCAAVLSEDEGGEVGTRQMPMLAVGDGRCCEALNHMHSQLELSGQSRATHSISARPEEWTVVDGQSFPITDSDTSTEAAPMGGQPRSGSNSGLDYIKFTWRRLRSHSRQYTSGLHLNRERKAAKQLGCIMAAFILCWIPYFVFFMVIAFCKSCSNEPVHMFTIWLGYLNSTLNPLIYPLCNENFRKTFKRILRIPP

T1 sequence (Q9JI35 whole entry): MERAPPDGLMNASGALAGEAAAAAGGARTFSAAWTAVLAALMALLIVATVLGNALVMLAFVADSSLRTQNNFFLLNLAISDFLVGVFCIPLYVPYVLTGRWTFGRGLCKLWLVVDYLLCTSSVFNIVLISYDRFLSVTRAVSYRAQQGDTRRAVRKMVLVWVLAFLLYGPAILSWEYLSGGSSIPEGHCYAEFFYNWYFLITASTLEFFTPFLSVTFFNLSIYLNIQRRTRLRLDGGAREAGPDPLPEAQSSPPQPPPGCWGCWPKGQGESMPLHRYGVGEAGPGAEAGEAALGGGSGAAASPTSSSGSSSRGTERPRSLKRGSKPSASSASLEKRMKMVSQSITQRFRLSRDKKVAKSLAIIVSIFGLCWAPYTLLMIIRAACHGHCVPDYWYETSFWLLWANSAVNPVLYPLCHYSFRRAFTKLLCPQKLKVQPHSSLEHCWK

For `CN(CCCCN1CCN(CCCCCCCOc2ccccc2)CC1)C(=O)c1ccccc1`, in assay [1], the Kb is 105 nM.

Turning to `NCCCCCN1CCN(CCCCCCCOc2ccccc2)CC1`, the Kb in assay [2] was 102 nM.

Turning to `NCCCN1CCN(CCCCCCCOc2ccccc2)CC1`, the Kb in assay [2] was 91.2 nM.

As for `NCCCCN1CCN(CCCCCCCOc2ccccc2)CC1`, the Kb was above 100 µM in assay [3] and 66.1 nM in assay [2].

In the case of `NCCCN1CCN(CCCOc2ccccc2)CC1`, the Kb in assay [2] was 513 nM.

Turning to `NCCCN1CCN(CCCCCOc2ccccc2)CC1`, in assay [2], the Kb is 158 nM.

Consider `NCCCCCCCN1CCN(CCCCCCCOc2ccccc2)CC1`, for which, in assay [2], the Kb is 214 nM.

Turning to `S=C(NC1CCCCC1)N1CCC(c2cnc[nH]2)CC1` [THIOPERAMIDE], the Kb in assay [2] was 2.19 nM.

Turning to `NCCCN1CCN(CCCCCCCCOc2ccccc2)CC1`, in assay [2], the Kb was 145 nM.

Regarding `NCCCN1CCN(CCOc2ccccc2)CC1`, the Kb in assay [2] was 178 nM.

On to `NCCN1CCN(CCCCCCCOc2ccccc2)CC1`, for which the Kb in assay [2] is 380 nM.

With `NCCCN1CCN(CCCCCCCCCOc2ccccc2)CC1`, the Kb in assay [2] was 102 nM.

As to `NCCCN1CCN(CCCCOc2ccccc2)CC1`, the Kb in assay [2] is 240 nM.

Turning to `CN(CCCCN1CCN(CCCCCCCOc2ccccc2)CC1)C(=O)C(F)(F)F`, the Kb in assay [1] is 100 nM.

For `NCCCCCCN1CCN(CCCCCCCOc2ccccc2)CC1`, the Kb in assay [2] is 214 nM.

As for `NCCCN1CCN(CCCCCCOc2ccccc2)CC1`, in assay [2], the Kb was 191 nM.

Take `CC(=O)N(C)CCCCN1CCN(CCCCCCCOc2ccccc2)CC1`: the Kb in assay [1] is 69.2 nM.
